# Tests used:
# [1] = tested on: Shaker, fluorinated derivatives of Phe449; experiment: Voltage dependence of TEA block, all fluorinated derivatives of Phe449; type: cell-based
# [2] = tested on: Shaker T449X, X = 4F-Phe; type: cell-based; details: 4F-Phe at 449 relative to Phe; ΔΔG = RT ln(K i,X/K i,Phe)
# [3] = biological target: KcsA; details: read-out: K i for TEA block; KcsA (Tyr82); ref Heginbotham et al., 1999; cited from earlier work
# [4] = tested on: Shaker Tyr449; details: ref Heginbotham and MacKinnon, 1992; cited from earlier work
# [5] = tested on: KcsA; experiment: TEA block of KcsA; type: biochemical, Streptomyces lividans; details: higher than for Shaker T449F
# [6] = biological target: T1, Shaker Thr449 (wild type) (Drosophila melanogaster, UniProt P08510, C301S/C308S/DEL6-46); experiment: Extracellular TEA block of voltage-clamped potassium currents, Shaker with Thr; type: cell-based; details: Thr at 449 relative to Phe; ΔΔG = RT ln(K i,X/K i,Phe)
# [7] = biological target: T1, Shaker Thr449 (wild type); details: ref Heginbotham and MacKinnon, 1992; cited from earlier work
# [8] = tested on: Shaker T449X, X = 3,5F-Phe; type: cell-based; details: 3,5F-Phe at 449 relative to Phe; ΔΔG = RT ln(K i,X/K i,Phe)
# [9] = tested on: Shaker T449X, X = Cha; type: cell-based
# [10] = tested on: Shaker T449X, X = 3,4,5F-Phe; type: cell-based; details: 3,4,5F-Phe at 449 relative to Phe; ΔΔG = RT ln(K i,X/K i,Phe)
# [11] = biological target: Shaker T449F (Drosophila melanogaster, UniProt P08510, C301S/C308S/DEL6-46/T449F); type: cell-based
# [12] = benzene compared with hexafluorobenzene; ref Leo et al., 1971; cited from earlier work
smiles,measurement,setting,value
"CC[N+](CC)(CC)CC [TEA, tetraethylammonium]",voltage dependence of block,[1],2–8%
same,ΔΔG,[2],1.23 kcal/mol
same,Ki,[3],3.2 mM
same,fraction of the transmembrane electric field sensed by TEA,[4],4%
same,K i for TEA block of KcsA relative to Shaker T449F,[5],~10 fold
same,ΔΔG,[6],2.58 kcal/mol
same,fraction of the transmembrane electric field sensed by TEA,[7],19%
same,ΔΔG,[8],2.78 kcal/mol
same,ΔΔG,"[9]; Cha at 449 relative to Phe, ΔΔG = RT ln(K i,X/K i,Phe)",3.75 kcal/mol
same,effect on TEA affinity (decrease relative to Phe),[9]; nonaromatic residue Cha at 449,640 fold
same,ΔΔG,[10],3.54 kcal/mol
same,ΔΔG,"[11]; Phe at 449 (reference), ΔΔG = RT ln(K i,X/K i,Phe), RT 0.58 kcal/mol",0 kcal/mol
"CC[As+](CC)(CC)CC [TEAs, tetraethylarsonium]",factor by which TEAs is a weaker blocker (larger inhibitory constant) than TEA,"[11]; Shaker T449F, unpublished data",~25 fold
Fc1c(F)c(F)c(F)c(F)c1F [hexafluorobenzene],logP (water/octanol partition),[12],nearly identical
